Measured values as given in patent US20240217951A1, “PCSK9 INHIBITORS AND METHODS OF USE THEREOF” (AstraZeneca AB, priority 2022, published 2024).

How the values were obtained:
PCSK9 [1] = molecular target: T1, PCSK9 (Homo sapiens, UniProt Q8NBP7, G670E/V474I); experiment: biochemical
[2] = molecular target: T2, potassium ion channel hERG (human Ether-á-go-go-Related Gene) (Homo sapiens, UniProt Q12809); experiment: Assay 5 - hERG assay (SyncroPatch 384PE patch clamp, CHO cells); assay type: cell-based; conditions: geometric mean; CHO cells over-expressing hERG; read-out: Assay 5 (hERG Hu CHO IF EPh CR-Syncro) GMean IC50
T2 construct: expressed in transfected cells; host or cells: Chinese hamster ovary K1 (CHO)
T2 sequence (Q12809 whole entry): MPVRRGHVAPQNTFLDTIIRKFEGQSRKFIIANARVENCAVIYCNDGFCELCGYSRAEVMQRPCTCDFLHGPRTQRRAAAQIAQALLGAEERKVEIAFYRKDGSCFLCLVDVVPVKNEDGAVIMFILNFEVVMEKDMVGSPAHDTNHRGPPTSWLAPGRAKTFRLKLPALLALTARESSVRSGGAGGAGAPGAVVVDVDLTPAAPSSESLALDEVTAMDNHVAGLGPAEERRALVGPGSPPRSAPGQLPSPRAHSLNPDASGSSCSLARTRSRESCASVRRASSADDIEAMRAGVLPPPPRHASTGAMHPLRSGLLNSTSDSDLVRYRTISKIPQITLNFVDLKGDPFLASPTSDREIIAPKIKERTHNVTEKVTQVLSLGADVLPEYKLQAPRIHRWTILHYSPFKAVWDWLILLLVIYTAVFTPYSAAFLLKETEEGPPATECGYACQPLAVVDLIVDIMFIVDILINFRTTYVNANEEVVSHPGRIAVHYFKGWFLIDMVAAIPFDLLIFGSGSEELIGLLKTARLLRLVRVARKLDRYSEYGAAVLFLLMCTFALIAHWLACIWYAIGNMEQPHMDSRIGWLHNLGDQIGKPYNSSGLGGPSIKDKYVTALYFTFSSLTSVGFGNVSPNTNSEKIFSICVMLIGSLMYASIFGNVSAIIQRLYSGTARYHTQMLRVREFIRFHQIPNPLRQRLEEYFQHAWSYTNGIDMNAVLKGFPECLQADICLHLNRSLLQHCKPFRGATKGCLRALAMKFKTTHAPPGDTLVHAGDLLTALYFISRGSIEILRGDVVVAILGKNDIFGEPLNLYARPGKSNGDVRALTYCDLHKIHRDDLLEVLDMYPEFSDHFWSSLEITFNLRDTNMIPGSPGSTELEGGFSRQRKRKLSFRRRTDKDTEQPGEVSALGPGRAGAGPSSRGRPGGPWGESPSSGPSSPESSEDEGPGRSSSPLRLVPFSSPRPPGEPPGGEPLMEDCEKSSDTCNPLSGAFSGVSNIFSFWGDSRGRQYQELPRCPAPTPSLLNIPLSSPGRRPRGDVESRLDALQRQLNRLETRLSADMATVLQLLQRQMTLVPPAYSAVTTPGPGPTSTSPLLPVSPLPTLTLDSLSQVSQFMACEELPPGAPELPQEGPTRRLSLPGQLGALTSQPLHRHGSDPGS
Outline: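 Automated high-throughput patch clamp on CHO-K1 cells overexpressing hERG at room temperature, KF/KCl internal with escin, NMDG-containing external at pH 7.4. Six-point cumulative compound addition, 0.33% DMSO final; wells kept only with seal >30 MΩ, Z′ >0.4 and current >0.2 nA.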

human PCSK9 = molecular target: T3, human PCSK9 (Homo sapiens, UniProt Q8NBP7); experiment: Assay 2 - Biophysical human PCSK9 assay (SPR, Biacore); assay type: binding; conditions: geometric mean; SPR at 30° C; read-out: Assay 2 (PCSK9 BIAcore DBA CR) GMean Kd
T3 construct: biotinylated human PCSK9 (31-692)-Avi-His6; His6 (C)
T3 sequence (Q8NBP7 31-692): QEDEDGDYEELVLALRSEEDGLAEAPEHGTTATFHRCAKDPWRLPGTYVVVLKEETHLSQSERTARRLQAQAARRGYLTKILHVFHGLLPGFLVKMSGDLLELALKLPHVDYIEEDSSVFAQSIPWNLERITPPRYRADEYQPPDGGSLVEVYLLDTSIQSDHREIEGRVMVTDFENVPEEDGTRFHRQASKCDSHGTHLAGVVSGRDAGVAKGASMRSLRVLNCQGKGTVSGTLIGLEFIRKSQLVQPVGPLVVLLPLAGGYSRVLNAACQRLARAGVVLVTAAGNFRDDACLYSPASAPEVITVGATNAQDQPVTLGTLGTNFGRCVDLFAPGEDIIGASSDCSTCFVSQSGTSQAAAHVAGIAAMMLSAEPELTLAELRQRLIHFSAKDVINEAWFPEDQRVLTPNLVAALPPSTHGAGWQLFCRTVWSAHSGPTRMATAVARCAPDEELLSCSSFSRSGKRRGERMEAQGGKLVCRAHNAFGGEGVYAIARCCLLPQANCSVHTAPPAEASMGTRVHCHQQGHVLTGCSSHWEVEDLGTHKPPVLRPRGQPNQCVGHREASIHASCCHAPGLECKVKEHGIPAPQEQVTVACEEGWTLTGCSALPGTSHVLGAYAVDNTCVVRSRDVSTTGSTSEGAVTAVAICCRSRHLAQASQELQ
Protocol: Assay 2—Biophysical Human PCSK9 Assay
The SPR binding experiments were performed on a Biacore S200 optical biosensor unit at 30° C. A Series S Sensor Chip SA that is designed to bind biotinylated molecules for interaction analysis in Biacore systems was equilibrated at room temperature prior to use. The running buffer for protein tethering and subsequent ligand binding experiments was 10 mM HEPES pH 7.4, 150 mM NaCl, 0.05% (v/v) Tween 20 pH 7.4.
For the surface tethering of PCSK9, biotinylated human PCSK9 (31-692)-Avi-His6 at a concentration of 0.5 mg/mL was used. Prior to the surface tethering, the surface was exposed to a solution of 50 mM NaOH, 500 mM NaCl via 3 consecutive injections of this solution with a contact time of 60 s and a flowrate of 10 μL min^−1 to remove non-conjugated streptavidin. The PCSK9 protein was diluted to a concentration of 20 μg/mL using running buffer and injected with a contact time of 180-300 s and a flowrate of 10 μL min^−1 over a single flow channel (typically flow channel 2 or flow channel 4) with the aim to achieve protein capture levels of >5000 response units (RU). Remaining biotin binding sites were blocked via 2 consecutive injections of a 10 μM D-biotin solution in running buffer with a contact time of 60 s and a flowrate of 10 μL min^−1 over all flow-channels. Flow-channels 1 and 3 typically served as a reference surface throughout the subsequent binding experiments.
The binding experiments were all performed at a flow rate of 30 PL min^−1 and by employing the method of single-cycle kinetics. This approach involves the sequential injection of a compound concentration series without regeneration steps. A contact time between 90-150 s was selected, which was followed by a 40 min dissociation phase to allow for a proper estimation of the dissociation rate constant. Test compounds were delivered in DMSO at a concentration of 10 mM and a digital dispenser HP D300 was used to set up the compound concentration series using 6 concentrations. The tested concentrations have been 30, 100, 300, 1000, 3000 and 10000 nM. Prior to injecting any compound, the surfaces were equilibrated by injecting running buffer over them in three separate pulses. The data collection rate was set to 10 Hz.
The raw sensorgrams of the compound injections were first subjected to reference subtraction (subtracting the signal from flow channel 1 and/or 3 from the signal from channels 2 and/or 4 respectively) and then blank subtraction (subtracting the signal from injecting DMSO controls from the reference subtracted data). The resulting double-referenced sensorgrams were then fitted using a 1:1 binding interaction model using the manufactures software package to extract kinetic- and affinity data. Active compounds have been defined by creating a detectable binding signal at the highest compound concentration ([…]) of 3 RUs. Kinetic- and affinity data on active compounds are only provided for those compounds where the binding signal at the highest compound concentration ([…]) is 50% of the theoretical maximum binding signal for a 1:1 binding interaction (Rmax, typically between 15-20 RUs) in order to enable a proper fitting of the data.

[3] = molecular target: GSK3β (Glycogen synthase kinase-3 beta) (Homo sapiens, UniProt P49841); experiment: Assay 6 - GSK3β assay (ThermoFisher Z-Lyte); assay type: biochemical; conditions: geometric mean; ATP Conc: 10 μM; read-out: Assay 6 (GSK3β FRET-Z-Lyte CR) GMean IC50 (μM) ATP Conc: 10
GSK3β (Glycogen synthase kinase-3 beta), sequence (P49841 whole entry): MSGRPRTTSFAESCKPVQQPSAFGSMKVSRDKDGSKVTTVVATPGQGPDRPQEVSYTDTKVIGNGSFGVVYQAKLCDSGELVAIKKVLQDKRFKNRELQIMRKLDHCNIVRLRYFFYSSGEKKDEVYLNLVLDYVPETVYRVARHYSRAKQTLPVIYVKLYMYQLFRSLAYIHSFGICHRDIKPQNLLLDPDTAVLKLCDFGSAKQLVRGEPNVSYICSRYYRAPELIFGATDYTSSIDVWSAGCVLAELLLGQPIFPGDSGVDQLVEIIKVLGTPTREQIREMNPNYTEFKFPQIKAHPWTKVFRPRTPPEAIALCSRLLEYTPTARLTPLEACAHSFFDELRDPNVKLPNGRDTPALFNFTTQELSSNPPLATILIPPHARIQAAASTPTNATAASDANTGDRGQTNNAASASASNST
Outline: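 Z-Lyte fluorescence kinase assay with 0.22-0.92 ng GSK3β and 2 μM Ser/Thr 09 peptide in 50 mM HEPES pH 7.5, 10 mM MgCl2, 1 mM EGTA, 0.01% BRIJ-35. Kinase reaction 60 min at room temperature, then 60 min development. 10-point 3-fold titration from 10 μM in 1% DMSO, fitted to a sigmoidal dose-response curve.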

PCSK9 [4] = molecular target: T1, PCSK9; experiment: Assay 3 - PCSK9 LDL-C uptake assay in HepG2 cells; assay type: cell-based; parameters: TEV cleavage site (C); His6 (C); host or cells: added to HepG2 cells (ATCC #HB-8065); conditions: 125 nM PCSK9, pHrodo Red-LDL, read-out: Assay 3 LDL uptake potency
From the text: Assay 3—PCSK9 LDL-C Uptake Assay
This assay measures for PCSK9 antagonist activity based on a test compound's capacity to restore LDL-C-uptake in HepG2 cells. The assay is based on exogenous PCSK9 and LDL-C complexed with a pH-sensitive dye. Outside the cells, at neutral pH, the pHrodo Red-LDL is dimly fluorescent but upon LDLR mediated endocytosis it fluoresces brightly. PCSK9 traffics the LDLR to intracellular degradation and reduces uptake of LDL-C. Inhibition of PCSK9 reduces LDLR degradation and the increased LDL-C uptake is quantified by fluorescence microscopy.
Preparation of Assay Reagents
Cell medium: MEM supplemented with 10% FBS, 1×NEAA and Sodium Pyruvate Assay medium: OptiMem supplemented with penicillin/streptomycin
Cells: HepG2 (ATCC #HB-8065)
Step by Step Protocol for Running the Assay:
• 1. Cryopreserved HepG2 cells were thawed in assay medium and centrifuged for 5 min at 250 g. Supernatant was discarded and the cell pellet resuspended in cell medium and counted with a Nucleocounter. Cells were again centrifuged 5 min at 250 g and the pellet was resuspended to 500000 cells/mL in assay medium. • 2. 20 μL of above cell mix was dispensed into black pclear TC treated 384 well plates with Multidrop Combi and left at room temperature for 20 minutes. • 3. Plates were incubated at 37° C., 5% CO2 for 24 h
• 1. Test compounds were prepared in concentration response in DMSO with a half-log dilution factor in DMSO in Echo 384 LDV plates starting at 10 mM. • 2. 30 nL of above test compounds were dispensed with Echo 655 to cells for a top concentration of 10 μM • 3. 10 μL PCSK9 in assay medium was dispensed to cells with Multidrop Combi for 125 nM final concentration in the wells. • 4. Plates were incubated at 37° C., 5% CO2 for 24 h
• 1. 10 μL pHrodo Red-LDL in assay medium was dispensed to cells with Multidrop Combi for 6 μg/mL • 2. Plates were incubated at 37° C., 5% CO2 and imaged with the Incucyte S3 after 4 h and 24 h
Image data was processed using Incucyte 2021, a software to identify cells and red fluorescent intensity. Screener was used to further process data. Data was normalized as % effect of the signal between median values of the on-plate controls of DMSO and 100 nM Evolocumab according to the formula % effect=−100*(x−DMSO)/(Evolocumab−DMSO) where x equals the measured signal. Concentration response data of the normalized values were fitted using a four-parameter logistic fit.

T1 sequence (Q8NBP7 with tags, fused parts or gaps V474I/G670E): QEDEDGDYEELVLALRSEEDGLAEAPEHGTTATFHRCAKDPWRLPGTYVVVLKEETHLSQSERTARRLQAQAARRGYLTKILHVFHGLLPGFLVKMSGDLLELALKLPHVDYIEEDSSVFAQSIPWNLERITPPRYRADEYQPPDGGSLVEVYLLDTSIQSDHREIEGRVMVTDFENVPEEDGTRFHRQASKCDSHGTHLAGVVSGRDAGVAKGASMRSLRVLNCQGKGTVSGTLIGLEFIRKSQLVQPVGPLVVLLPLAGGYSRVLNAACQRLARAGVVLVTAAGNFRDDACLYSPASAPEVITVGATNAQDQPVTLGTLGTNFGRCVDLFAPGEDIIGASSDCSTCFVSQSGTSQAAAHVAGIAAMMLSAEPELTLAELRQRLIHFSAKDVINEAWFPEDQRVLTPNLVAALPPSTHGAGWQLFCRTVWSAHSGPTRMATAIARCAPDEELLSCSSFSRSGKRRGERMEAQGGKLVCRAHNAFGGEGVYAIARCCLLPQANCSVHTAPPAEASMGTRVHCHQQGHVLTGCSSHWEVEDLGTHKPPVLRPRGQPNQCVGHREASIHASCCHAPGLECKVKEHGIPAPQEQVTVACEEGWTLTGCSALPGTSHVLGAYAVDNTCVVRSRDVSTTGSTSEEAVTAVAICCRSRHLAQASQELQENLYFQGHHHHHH

SMILES	IC50 (PCSK9 [1])	IC50 [2]	Kd (human PCSK9)	IC50 [3]	EC50 (PCSK9 [4])
Cc1nc(N[C@H]2CC[C@H](Nc3ccc(-n4ccccc4=O)cn3)C2)cnc1C#N [Example 1, 3-Methyl-5-(((1S,3S)-3-((2-oxo-2H-[1,3′-bipyridin]-6′-yl)amino)cyclopentyl)amino)pyrazine-2-carbonitrile]	2750 nM	> 40100 nM	1700 nM		
Cc1ncc(N[C@H]2CC[C@H](Nc3ccc(-n4ccccc4=O)cn3)C2)nc1C [Example 2, 6′-(((1S,3S)-3-((5,6-Dimethylpyrazin-2-yl)amino)cyclopentyl)amino)-2H-[1,3′-bipyridin]-2-one]	112 nM	> 40000 nM	64 nM	> 10 µM	
O=c1ccccn1-c1ccc(N[C@H]2CC[C@H](Nc3cnc(Cl)cn3)C2)nc1 [Example 3, 6′-(((1S,3S)-3-((5-Chloropyrazin-2-yl)amino)cyclopentyl)amino)-2H-[1,3′-bipyridin]-2-one]	40 nM	24600 nM	39 nM	> 10 µM	
Cc1cnc(N[C@H]2CC[C@H](Nc3ccc(-n4ccccc4=O)cn3)C2)cn1 [Example 4, 6′-(((1S,3S)-3-((5-Methylpyrazin-2-yl)amino)cyclopentyl)amino)-2H-[1,3′-bipyridin]-2-one]	104 nM	> 40000 nM	81 nM	> 10 µM	
CC(=O)c1cnc(N[C@H]2CC[C@H](Nc3ccc(-n4ccccc4=O)cn3)C2)cn1 [Example 6, 6′-(((1S,3S)-3-((5-Acetylpyrazin-2-yl)amino)cyclopentyl)amino)-2H-[1,3′-bipyridin]-2-one]	1160 nM	> 40100 nM	863 nM		
COc1cnc(N[C@H]2CC[C@H](Nc3ccc(-n4ccccc4=O)cn3)C2)cn1 [Example 140, 6′-(((1S,3S)-3-((5-Methoxypyrazin-2-yl)amino)cyclopentyl)amino)-2H-[1,3′-bipyridin]-2-one]	309 nM	> 40000 nM	81 nM		
Cc1cnc(N[C@H]2CC[C@H](Nc3ccc(-n4cc(-c5cn[nH]c5)ccc4=O)cn3)C2)cn1 [Example 207, 6′-(((1S,3S)-3-((5-Methylpyrazin-2-yl)amino)cyclopentyl)amino)-5-(1H-pyrazol-4-yl)-2H-[1,3′-bipyridin]-2-one]	8.6 nM	> 40100 nM		> 10 µM	400 nM
Cc1cnc(N[C@H]2CC[C@H](Nc3ccc(-n4cc(-c5c[nH]nn5)ccc4=O)cn3)C2)cn1 [Example 209, 6′-(((1S,3S)-3-((5-Methylpyrazin-2-yl)amino)cyclopentyl)amino)-5-(1H-1,2,3-triazol-4-yl)-2H-[1,3′-bipyridin]-2-one]	6.3 nM	> 40100 nM		> 10 µM	200 nM
Cc1cnc(N[C@H]2CC[C@H](Nc3ccc(-n4c(=O)n(C)c5ccc(C#N)cc54)cn3)C2)cn1 [Example 215, 1-Methyl-3-(6-(((1S,3S)-3-((5-methylpyrazin-2-yl)amino)cyclopentyl)amino)pyridin-3-yl)-2-oxo-2,3-dihydro-1H-benzo[d]imidazole-5-carbonitrile]	1 nM	16000 nM		> 10 µM	100 nM
Cc1cnc(N[C@H]2CC[C@H](Nc3ccc(-n4c(=O)n(C)c5cc(C#N)ccc54)cn3)C2)cn1 [Example 216, 3-Methyl-1-(6-(((1S,3S)-3-((5-methylpyrazin-2-yl)amino)cyclopentyl)amino)pyridin-3-yl)-2-oxo-2,3-dihydro-1H-benzo[d]imidazole-5-carbonitrile]	2.8 nM	7300 nM		> 10 µM	300 nM
Cc1cnc(N[C@H]2CC[C@H](Nc3ccc(-n4c(=O)n(C)c5cc(C#N)cnc54)cn3)C2)cn1 [Example 218, 1-Methyl-3-(6-(((1S,3S)-3-((5-methylpyrazin-2-yl)amino)cyclopentyl)amino)pyridin-3-yl)-2-oxo-2,3-dihydro-1H-imidazo[4,5-b]pyridine-6-carbonitrile]	5.4 nM	22500 nM		> 10 µM	300 nM
Cc1cnc(N[C@H]2CC[C@H](Nc3ccc(-n4nccc(Cl)c4=O)cn3)C2)cn1 [Example 232, 4-Chloro-2-(6-(((1S,3S)-3-((5-methylpyrazin-2-yl)amino)cyclopentyl)amino)pyridin-3-yl)pyridazin-3 (2H)-one]	3.7 nM	39900 nM		> 10 µM	500 nM
Cc1cnc(N[C@H]2CC[C@H](Nc3ccc(-n4cc(CS(C)(=O)=O)ccc4=O)cn3)C2)cn1 [Example 259, 6′-(((1S,3S)-3-((5-Methylpyrazin-2-yl)amino)cyclopentyl)amino)-5-((methylsulfonyl)methyl)-2H-[1,3′-bipyridin]-2-one]	43 nM	> 40100 nM		> 10 µM	> 600 nM
